The values that follow come from ChEMBL document CHEMBL1201862, “PubChem BioAssay data set” (2004).

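How tested: cells in 96-well plates exposed to compound for 48 hours at five concentrations. GI50: concentration for 50% inhibition of growth.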 The source made the active and inactive calls. No stated cut-off is given here; in the data, active = GI50 up to about 1.1 µM and inactive = higher. Where a SMILES comes first, the peptide text is derived from it. Bridges are numbered along the chain shown (N, C = ends). [ ]: non-standard residue; d: D form. The star is where a group is joined. ξ: configuration not given here. ξNMePhe(4-NMe2) = CNC(Cc1ccc(N(C)C)cc1)C(=O)O; Picolinoyl(3-OH) = O=C(c1ncccc1O)*; ξPip(4-oxo) = O=C1CCNC(C(=O)O)C1; Phg = N[CH](C(=O)O)c1ccccc1; Abu = CC[CH](N)C(=O)O Some results are limits rather than exact numbers.

What all share (experiment): NCI tumour cell line growth inhibition, 48 h
Assay [1] concerns HL-60.
Assay [2] has as its system OVCAR-8.
Assay [3] has as its system HOP-62.
In assay [4] the test system is OVCAR-4.
For assay [5], the system named is COLO 205.
Assay [6] has as its system A549.
The subject of assay [7] is SR.
The test system of assay [8] is SF-539.
The test system of assay [9] is HOP-92.
Assay [10] relates to T47D.
Assay [11] deals with RPMI-8226.
The test system of assay [12] is Hs-578T.
Assay [13] has as its system NCI-H522.
In assay [14] the test system is NCI-H226.
Assay [15] has as its system SNB-75.
Assay [16] concerns UO-31.
The subject of assay [17] is ACHN.
The subject of assay [18] is HCT-116.
The subject of assay [19] is NCI-H460.

Take `CC1=C/C(O)CC(=O)Cc2nc(co2)C(=O)N2CCC=C2C(=O)OC(C(C)C)C(C)/C=C/C(=O)NC\C=C\1.CCC1NC(=O)C(NC(=O)c2ncccc2O)C(C)OC(=O)C(c2ccccc2)NC(=O)C2CC(=O)CCN2C(=O)C(Cc2ccc(N(C)C)cc2)N(C)C(=O)C2CCCN2C1=O` (stereo not given) ({Picolinoyl(3-OH)}-T[Abu]P[ξNMePhe(4-NMe2)][ξPip(4-oxo)][Phg]; ester 1-C; configuration not given here): the GI50 in [1] is 3.71 µM (inactive); in assay [2], 25.6 µM (inactive); in assay [3], 14.6 µM (inactive); in [4], 12.1 µM (inactive); in assay [5], 6.59 µM (inactive); in [6], 16.7 µM (inactive). Also, the GI50 in assay [7] was 3.86 µM (inactive); in [8], 17.5 µM (inactive); in [9] it was 3.78 µM (inactive); in [10], 15.4 µM (inactive); in [11] it was 4.68 µM (inactive); in assay [12] it was 18.2 µM (inactive). Also, the GI50 was 9.1 µM (inactive) in [13]; 13.6 µM (inactive) in [14]; 24.7 µM (inactive) in assay [15]; 20.8 µM (inactive) in [16]; 7.96 µM (inactive) in assay [17]; 6.4 µM (inactive) in [18]. Moreover, the GI50 in [19] was 3.75 µM (inactive).

For `COc1ccc(NC2C(=O)C3(C)CCC2C3(C)C)cc1` (stereo not given), the GI50 is 29.3 µM (inactive) in assay [1]; > 100 µM (inactive) in [2]; > 100 µM (inactive) in [3]; 72.9 µM (inactive) in assay [4]; > 100 µM (inactive) in assay [5]; > 100 µM (inactive) in assay [6]. In addition, the GI50 in [7] was 74.8 µM (inactive); in assay [8], > 100 µM (inactive); in assay [9], 33.4 µM (inactive); in [10] it was > 100 µM (inactive); in assay [11] it was 52.2 µM (inactive); in assay [12], > 100 µM (inactive). In addition, the GI50 is 79.4 µM (inactive) in assay [13]; 67.8 µM (inactive) in [14]; > 100 µM (inactive) in assay [15]; 54.7 µM (inactive) in assay [16]; > 100 µM (inactive) in assay [17]; > 100 µM (inactive) in assay [18]. Also, in [19], the GI50 was > 100 µM (inactive).

As to `O=S(=O)(O)c1ccc2c(/N=N\c3cccc4ccccc34)c(O)c(S(=O)(=O)O)cc2c1`, the GI50 in assay [1], in [2], in assay [3], in assay [4], in [5] and in assay [6] was > 100 µM (inactive) each time. Further, the GI50 in assay [7] is > 48.6 µM (inactive); in [8], > 100 µM (inactive); in assay [9], > 100 µM (inactive); in assay [10] it was > 100 µM (inactive); in assay [11], > 100 µM (inactive); in assay [12], > 100 µM (inactive). In addition, the GI50 in assay [13], in assay [14], in [15], in assay [16], in [17] and in [18] was > 100 µM (inactive) throughout. Besides, the GI50 in assay [19] is > 100 µM (inactive).

For the compound `O=C1COc2cc(N3CCN(c4cccc(C(F)(F)F)c4)CC3)ccc2N1`, the GI50 in [1], in [2], in assay [3], in assay [4], in assay [5] and in assay [6] was > 100 µM (inactive) in each case. Also, the GI50 in assay [7], in assay [8], in [9], in assay [10], in assay [11] and in [12] was > 100 µM (inactive) each time. In addition, the GI50 is 86.3 µM (inactive) in [13]; > 100 µM (inactive) in assay [14]; > 100 µM (inactive) in [15]; > 100 µM (inactive) in [16]; > 100 µM (inactive) in assay [17]; > 100 µM (inactive) in [18]. In addition, the GI50 in [19] was > 100 µM (inactive).

For `NC1NCCC(=O)N1CCc1c[nH]c2ccccc12` (stereo not given), the GI50 in assay [1] was 24.8 µM (inactive); in assay [2] it was 39.7 µM (inactive); in assay [3], 19.2 µM (inactive); in assay [4], 27.1 µM (inactive); in [5], 18.3 µM (inactive); in [6] it was 26.1 µM (inactive). Moreover, the GI50 was 29 µM (inactive) in [7]; 16.7 µM (inactive) in assay [8]; 31.1 µM (inactive) in [9]; 37.2 µM (inactive) in assay [10]; 37.2 µM (inactive) in assay [11]; 23.4 µM (inactive) in [12]. For the same compound, the GI50 is 87.5 µM (inactive) in assay [13]; 28.7 µM (inactive) in assay [14]; 6.98 µM (inactive) in [15]; 41.6 µM (inactive) in assay [16]; 24.6 µM (inactive) in assay [17]; 13.6 µM (inactive) in assay [18]. Also, the GI50 in assay [19] was 16.8 µM (inactive).

For `COP(=N[Si](C)(C)C)(OC)OC`, the GI50 in assay [1], in [2], in assay [3], in assay [4], in assay [5] and in [6] was > 100 µM (inactive) each time. For the same compound, the GI50 in [7], in assay [8], in [9], in assay [10], in assay [11] and in assay [12] was > 100 µM (inactive) in each case. The GI50 in [13], in assay [14], in assay [15], in assay [16], in assay [17] and in assay [18] was > 100 µM (inactive) each time. The GI50 in assay [19] was > 100 µM (inactive).

Consider `C[n+]1c2ccccc2n2c3ccccc3c(NCCCn3ccnc3)c(C#N)c21`, for which the GI50 in assay [1] is 3.94 µM (inactive); in assay [2], 1.55 µM (inactive); in [3], 2.03 µM (inactive); in assay [4] it was 1.61 µM (inactive); in [5], 1.23 µM (inactive); in assay [6], 3.92 µM (inactive). Further, the GI50 in [7] was 1.27 µM (inactive); in [8], 3.94 µM (inactive); in assay [9] it was 3.15 µM (inactive); in [10] it was 1.61 µM (inactive); in [11], 1.22 µM (inactive); in assay [12], 1.64 µM (inactive). In addition, the GI50 was 0.575 µM (active) in assay [13]; 2.85 µM (inactive) in assay [14]; 1.66 µM (inactive) in [15]; 7.21 µM (inactive) in assay [16]; 3.48 µM (inactive) in assay [17]; 1.08 µM (active) in [18]. The GI50 in assay [19] was 1.44 µM (inactive).

In the case of `CC(Cl)(CCC(Cl)C(C)(C)Cl)C(=O)CBr` (stereo not given), the GI50 in [1] was 2.24 µM (inactive); in assay [2], 10.5 µM (inactive); in assay [3] it was 18.2 µM (inactive); in [4], 2.73 µM (inactive); in [5], 6.27 µM (inactive); in assay [6] it was 19.5 µM (inactive). Also, the GI50 in assay [7] is 1.8 µM (inactive); in [8] it was 16.1 µM (inactive); in assay [9], 7.93 µM (inactive); in assay [10], 17.9 µM (inactive); in [11], 2.25 µM (inactive); in assay [12] it was 17.4 µM (inactive). The GI50 in assay [13] is 1.95 µM (inactive); in assay [14], 16.8 µM (inactive); in assay [15], 13.6 µM (inactive); in assay [16] it was 9.31 µM (inactive); in [17] it was 8.04 µM (inactive); in assay [18], 7.05 µM (inactive). Besides, the GI50 in assay [19] was 15.9 µM (inactive).

For `CC(=O)CCCCC(=O)Nc1ccc(CC(NC(=O)OC(C)(C)C)C(=O)NCC(=O)OCc2ccccc2)cc1` (stereo not given), the GI50 in [1] is 19.5 µM (inactive); in [2] it was 20 µM (inactive); in assay [3], 13.8 µM (inactive); in assay [4] it was 13.7 µM (inactive); in assay [5], 18.5 µM (inactive); in assay [6], 53.7 µM (inactive). Also, the GI50 in assay [7] was 22.2 µM (inactive); in assay [8] it was 18.8 µM (inactive); in [9], 29.1 µM (inactive); in assay [10] it was 19.9 µM (inactive); in assay [11] it was 18 µM (inactive); in assay [12], 16.1 µM (inactive). Moreover, the GI50 in [13] is 23.6 µM (inactive); in [14], 34.8 µM (inactive); in [15] it was 4.44 µM (inactive); in assay [16], 22.7 µM (inactive); in assay [17], 30.5 µM (inactive); in assay [18] it was 19.6 µM (inactive). In [19], the GI50 was 20.7 µM (inactive).

For the compound `CC(=O)OC1C[C@@H](C)C2(CC(c3ccoc3)OC2=O)C2CCC(O)C3(CO3)C12CO` (stereo not given in full), the GI50 in assay [1], in [2], in assay [3], in assay [4], in assay [5] and in [6] was > 100 µM (inactive) each time. The GI50 in assay [7], in assay [8], in assay [9], in [10], in [11] and in [12] was > 100 µM (inactive) throughout. For the same compound, the GI50 in assay [13], in assay [14], in assay [15], in [16], in assay [17] and in assay [18] was > 100 µM (inactive) in each case. Further, the GI50 in assay [19] is > 100 µM (inactive).
